Results taken from patent US20210147455A1 (SHAANXI SYNTHETIC PHARMACEUTICAL CO., LTD., priority 2018, published 2021).

Columns and labels:
[1] = Hygroscopicity study (Chinese Pharmacopoeia 2015, 9103); type: physicochemical; conditions: for Hygroscopic weight gain: 25° C.±1° C., saturated ammonium chloride solution, 24 hours; for Conclusion (hygroscopicity): after 24 hours
Protocol: Test method: • 1. A dried glass weighing bottle with stopper (having an outer diameter of 50 mm and a height of 15 mm) was placed in a thermostatic drier (a saturated ammonium chloride solution was placed on the lower part of the thermostatic drier) at an appropriate temperature of 25° C.±1° C. on the day earlier before the test, and the weight (m1) of weighing bottle was precisely weighed. • 2. An appropriate amount of test sample was taken and spread in the weighing bottle, and the thickness of the test sample was controlled to about 1 mm, and the weight (m2) was precisely weighed. • 3. The weighing bottle was opened and was placed, together with the bottle cap, under the above mentioned constant temperature and humidity condition for 24 hours. • 4. The weighing bottle was capped and precisely weighed to obtain the weight (m3).
Description of hygroscopicity characterization and delimitation of hygroscopicity weight gain: Deliquescence: enough moisture is absorbed to form a liquid. […] Slightly hygroscopic: hygroscopic weight gain is less than 2% but not less than 0.2%. Not or hardly hygroscopic: hygroscopic weight gain is less than 0.2%.

[2] = Stability experiments under 25° C.±2° C. and 65% R.H±5% R.H; conditions: 25° C./65% R.H
Source text: • 1. […] The results are shown in detail in the following table.

[3] = Stability experiments under 40° C.±2° C. and 75% R.H±5% R.H (accelerated test); type: physicochemical; conditions: 40° C./75% R.H

In the case of `CC[C@@H]([C@H](C)OP(=O)([O-])[O-])n1ncn(-c2ccc(N3CCN(c4ccc(OC[C@@H]5CO[C@@](Cn6cncn6)(c6ccc(F)cc6F)C5)cc4)CC3)cc2)c1=O.C[N+](C)(C)CCO.C[N+](C)(C)CCO` [Comparative Example 1, Posaconazole Phosphate Bicholinate], the Hygroscopic weight gain [1] is reported as 8.76%, the Content ([2]; month 0) is reported as 99.87% and the Description ([2]; month 0) is reported as “White”. The Related substance ([2]; month 0) was 0.13%, the Content ([2]; month 3) was 99.86% and the Description ([2]; month 3) was “White”. For the same molecule, the Related substance ([2]; month 3) was 0.14%, the Content ([2]; month 6) was 99.81% and the Description ([2]; month 6) was “White”. The Related substance ([2]; month 6) was 0.19%, the Content ([2]; month 9) was 99.77% and the Description ([2]; month 9) was “White”. For the same molecule, the Related substance ([2]; month 9) was 0.23%, the Content ([2]; month 12) was 99.61% and the Description ([2]; month 12) was “White”. The Related substance ([2]; month 12) was 0.31%, the Content ([2]; month 24) was 99.22% and the Description ([2]; month 24) was “White”. For the same molecule, the Related substance ([2]; month 24) was 0.78%, the Content ([3]; month 0) was 99.87% and the Description ([3]; month 0) was “White”. For the same molecule, the Related substance ([3]; month 0) was 0.13%, the Content ([3]; month 1) was 99.86% and the Description ([3]; month 1) was “White”. For the same molecule, the Related substance ([3]; month 1) was 0.14%, the Content ([3]; month 2) was 99.84% and the Description ([3]; month 2) was “White”. The Related substance ([3]; month 2) was 0.16%, the Content ([3]; month 3) was 99.80% and the Description ([3]; month 3) was “White”. The Related substance ([3]; month 3) was 0.20%, the Content ([3]; month 6) was 99.65% and the Description ([3]; month 6) was “White”. For the same molecule, the Related substance ([3]; month 6) was 0.35%.
With `CCC(C(C)OP(=O)([O-])[O-])n1ncn(-c2ccc(N3CCN(c4ccc(OCC5COC(Cn6cncn6)(c6ccc(F)cc6F)C5)cc4)CC3)cc2)c1=O.C[N+](C)(C)CCO.C[N+](C)(C)CCO.O.O.O.O.O` (centres unmarked) [Comparative Example 2, Posaconazole Phosphate Bicholinate Pentahydrate] the Hygroscopic weight gain [1] was 11.81%, the Content ([2]; month 0) was 99.87% and the Description ([2]; month 0) was “White”. The Related substance ([2]; month 0) was 0.13%, the Content ([2]; month 3) was 99.86% and the Description ([2]; month 3) was “White”. For the same molecule, the Related substance ([2]; month 3) was 0.14%, the Content ([2]; month 6) was 99.81% and the Description ([2]; month 6) was “White”. For the same molecule, the Related substance ([2]; month 6) was 0.19%, the Content ([2]; month 9) was 99.75% and the Description ([2]; month 9) was “White”. For the same molecule, the Related substance ([2]; month 9) was 0.25%, the Content ([2]; month 12) was 99.71% and the Description ([2]; month 12) was “White”. For the same molecule, the Related substance ([2]; month 12) was 0.29%, the Content ([2]; month 24) was 99.18% and the Description ([2]; month 24) was “White”. For the same molecule, the Related substance ([2]; month 24) was 0.82%, the Content ([3]; month 0) was 99.87% and the Description ([3]; month 0) was “White”. The Related substance ([3]; month 0) was 0.13%, the Content ([3]; month 1) was 99.86% and the Description ([3]; month 1) was “White”. For the same molecule, the Related substance ([3]; month 1) was 0.14%, the Content ([3]; month 2) was 99.85% and the Description ([3]; month 2) was “White”. The Related substance ([3]; month 2) was 0.16%, the Content ([3]; month 3) was 99.79% and the Description ([3]; month 3) was “White”. For the same molecule, the Related substance ([3]; month 3) was 0.21%, the Content ([3]; month 6) was 99.64% and the Description ([3]; month 6) was “White”. For the same molecule, the Related substance ([3]; month 6) was 0.36%.
In the case of `CC[C@@H]([C@H](C)OP(=O)(O)O)n1ncn(-c2ccc(N3CCN(c4ccc(OC[C@@H]5CO[C@@](Cn6cncn6)(c6ccc(F)cc6F)C5)cc4)CC3)cc2)c1=O.CNC[C@H](O)[C@@H](O)[C@H](O)[C@H](O)CO` [Comparative Example 4, Posaconazole Phosphate Monomeglumine Salt], the Hygroscopic weight gain [1] is reported as 0.88%, the “Conclusion (hygroscopicity)” value [1] is reported as “Slight hygroscopicity” and the Content ([2]; month 0) is reported as 99.87%. For the same molecule, the Description ([2]; month 0) was “White”, the Related substance ([2]; month 0) was 0.13% and the Content ([2]; month 3) was 99.81%. The Description ([2]; month 3) was “White”, the Related substance ([2]; month 3) was 0.19% and the Content ([2]; month 6) was 99.69%. The Description ([2]; month 6) was “White”, the Related substance ([2]; month 6) was 0.31% and the Content ([2]; month 9) was 99.57%. The Description ([2]; month 9) was “White”, the Related substance ([2]; month 9) was 0.43% and the Content ([2]; month 12) was 99.50%. The Description ([2]; month 12) was “White”, the Related substance ([2]; month 12) was 0.50% and the Content ([2]; month 24) was 98.98%. For the same molecule, the Description ([2]; month 24) was “White”, the Related substance ([2]; month 24) was 1.02% and the Content ([3]; month 0) was 99.87%. For the same molecule, the Description ([3]; month 0) was “White”, the Related substance ([3]; month 0) was 0.13% and the Content ([3]; month 1) was 99.73%. The Description ([3]; month 1) was “White”, the Related substance ([3]; month 1) was 0.27% and the Content ([3]; month 2) was 99.62%. The Description ([3]; month 2) was “White”, the Related substance ([3]; month 2) was 0.38% and the Content ([3]; month 3) was 99.50%. For the same molecule, the Description ([3]; month 3) was “White”, the Related substance ([3]; month 3) was 0.50% and the Content ([3]; month 6) was 99.36%. The Description ([3]; month 6) was “White” and the Related substance ([3]; month 6) was 0.64%.
With `CC[C@@H]([C@H](C)OP(=O)(O)O)n1ncn(-c2ccc(N3CCN(c4ccc(OC[C@@H]5CO[C@@](Cn6cncn6)(c6ccc(F)cc6F)C5)cc4)CC3)cc2)c1=O.N=C(N)NCCC[C@H](N)C(=O)O` [Comparative Example 5, Posaconazole Phosphate Monoarginine Salt] the Hygroscopic weight gain [1] was 1.02%, the “Conclusion (hygroscopicity)” value [1] was “Slight hygroscopicity” and the Content ([2]; month 0) was 99.87%. The Description ([2]; month 0) was “White”, the Related substance ([2]; month 0) was 0.13% and the Content ([2]; month 3) was 99.79%. The Description ([2]; month 3) was “White”, the Related substance ([2]; month 3) was 0.21% and the Content ([2]; month 6) was 99.71%. The Description ([2]; month 6) was “White”, the Related substance ([2]; month 6) was 0.29% and the Content ([2]; month 9) was 99.58%. For the same molecule, the Description ([2]; month 9) was “White”, the Related substance ([2]; month 9) was 0.42% and the Content ([2]; month 12) was 99.49%. The Description ([2]; month 12) was “White”, the Related substance ([2]; month 12) was 0.51% and the Content ([2]; month 24) was 99.03%. The Description ([2]; month 24) was “White”, the Related substance ([2]; month 24) was 0.97% and the Content ([3]; month 0) was 99.87%. The Description ([3]; month 0) was “White”, the Related substance ([3]; month 0) was 0.13% and the Content ([3]; month 1) was 99.72%. The Description ([3]; month 1) was “White”, the Related substance ([3]; month 1) was 0.28% and the Content ([3]; month 2) was 99.60%. For the same molecule, the Description ([3]; month 2) was “White”, the Related substance ([3]; month 2) was 0.40% and the Content ([3]; month 3) was 99.50%. For the same molecule, the Description ([3]; month 3) was “White”, the Related substance ([3]; month 3) was 0.50% and the Content ([3]; month 6) was 99.37%. The Description ([3]; month 6) was “White” and the Related substance ([3]; month 6) was 0.63%.
For “Posaconazole Phosphate Monosodium Salt [Comparative Example 8]”, the Hygroscopic weight gain [1] was 1.92%, the “Conclusion (hygroscopicity)” value [1] was “Slight hygroscopicity” and the Content ([3]; month 0) was 99.87%. For the same molecule, the Description ([3]; month 0) was “White”, the Related substance ([3]; month 0) was 0.13% and the Content ([3]; month 1) was 99.71%. For the same molecule, the Description ([3]; month 1) was “White”, the Related substance ([3]; month 1) was 0.29% and the Content ([3]; month 2) was 99,63%. The Description ([3]; month 2) was “White”, the Related substance ([3]; month 2) was 0.37% and the Content ([3]; month 3) was 99.47%. For the same molecule, the Description ([3]; month 3) was “White”, the Related substance ([3]; month 3) was 0.53% and the Content ([3]; month 6) was 99.32%. The Description ([3]; month 6) was “White” and the Related substance ([3]; month 6) was 0.68%.
